Tests used:
[1] = test system: PC12-HS cells; assay: Evaluation method B: neurite-outgrowth promoting activity in the presence of NGF; assay type: cell-based, rat; settings: for Action on PC12-HS neurite-outgrowth promotion (500 ng/ml) / Neurite-outgrowth rate (%): NGF 10 ng/ml; for Action on PC12-HS neurite-outgrowth promotion (500 ng/ml): 3 days, class of neurite-outgrowth rate
Description: (§1) As a model of the nerve cell, the NGF (nerve growth factor) highly sensitive strain of PC12 cell derived from the rat adrenal pheochromocytoma (hereinafter referred to as “PC12-HS cell”; JCRB cell bank, National Research and Development Institute of Health and Nutrition), which has been widely used as a suitable model for research on human neurodegenerative disease, was used. As the test compound, […] of trimethine cyanine dye compounds; NK-5 (Chemical formula 2), NK-36 (Chemical formula 3), NK-44 (Chemical formula 5) and dye compounds represented by Chemical formulae 12 to 18, and NK-6 (Chemical formula 7), which is a monomethine cyanine dye, were selected. In addition, two kinds of ethylene cross-linked dyes (Chemical formulae 19 and 20), 15 kinds of monomethine cyanine dyes (Chemical formulae 21 to 35), and seven kinds of trimethine cyanine dyes (Chemical formulae 36 to 42), which were expected to have a good neurocyte growth acceleration activity and/or neurite-outgrowth promoting activity in the screening disclosed in Patent literature 6, were also re-evaluated for comparison. The Chemical formulae 12 to 42 are shown below.
(§2) The cyanine dye compounds subjected to the test (purity 97% by mass or more, synthesized by Hayashibara Co., Ltd., Okayama, Japan) were individually dissolved in DMSO (product number “D8418”, commercialized by SIGMA Corporation) at a concentration of 5 mg/ml, and the solutions were then filtered through DMSO-resistant membrane (“Millex-LGS LLG025SS”, commercialized by Millipore Corporation) and stored at 25° C. in a dark condition. At the time of use, they were further diluted with Dulbecco's Medium (hereinafter, abbreviated as “D-MEM medium”, commercialized by Nissui Pharmaceutical Co., Ltd.) supplemented by 10% by volume of fetal bovine serum (FBS), and subjected to the test.
As in the case of evaluation of neurocyte growth accelerating activity (Evaluation method A), 50 μl/well of each test compound solution, prepared by diluting with the culture medium to give a final concentration of 500 ng/ml, and the culture medium containing 20 ng/ml of mouse NGF (mouse derived, final concentration 10 ng/ml, commercialized by Chemicon International, Inc., CA, USA) (50 μl/well) were added to the precultured PC12-HS cells in each well, and then cultured for three days. Culture medium was removed on day 3 of culture, and cells were fixed by adding 100 μl/well of 10% by volume of glutaraldehyde and standing for 20 minutes at room temperature. As a negative control, PC12-HS cells, cultured for three days with culture medium, were fixed with glutaraldehyde similarly as above. Fixed cells were observed under a microscope to assess the neurite-outgrowth. The neurite-outgrowth rate (%) was determined by observing the cells using a microscope by adjusting the magnitude to give about 100 cells in one visual field, counting the number of cells having neurites twice or more in length of the cell body (major axis), dividing by the total number of cells in the same visual field, and multiplying by 100. Measurements were carried out at three points for each test compound. […] In this experiment, the neurite-outgrowth rate was 5% or less when NGF was added (final concentration 10 ng/ml) without the addition of the test compound.
The method was based on Experiment 1-1, except the concentrations of the test compounds were set to three doses of 40 nM, 200 nM and 1,000 nM for evaluation method A (neurocyte growth accelerating effect), and two doses of 200 nM and 1,000 nM for evaluation method B (neurite outgrowth promoting effect). Measurements were performed in triplicate for each concentration of each test compound in both evaluation methods A and B. The result of the evaluation method A was expressed as a cell proliferation rate (%) by determined a relative percentage (%) when the value of the negative control to which the test compound was not added, was regarded as 100%. […]

[2] = test system: PC12-HS cells; assay: Evaluation method A: neurocyte growth acceleration activity (Alamar blue); assay type: cell-based, rat; settings: for Action on PC12-HS growth acceleration (50 ng/ml): 3 days culture, class of cell proliferation rate vs negative control = 100%; for Cell proliferation rate (%): negative control = 100%; for neurocyte growth acceleration activity (in words): 40, 200 and 1,000 nM, comment on Table 2
Description: as §1, §2
PC12-HS cells were subjected to tests after frozen stock cultured cells were thawed and cultured with a D-MEM medium supplemented with 10% by volume of FBS (Hereinafter, when the term “culture” is simply used, it means that the cells are statically cultured in an incubator controlled at 37° C. under 5% by volume of CO2 conditions). Cells used in the test were collected using 0.25% by weight of trypsin solution, then diluted with a D-MEM medium supplemented with 10% by volume of FBS (hereinafter referred to as “culture medium”), seeded into collagen-coated 96-well plates (commercialized by Falcon, Tokyo, Japan, “Microtest Plate, Cell Culture, Flat Bottom”) to obtain 5×10^3 cells/100 μl/well, and cultured for 24 hours (hereinafter referred to as “pre-culture”). Then, the above test samples were diluted with a culture medium, and 100 μl of diluted solution of the test compounds were added to each well so that the final concentration of the test compounds in the wells became 50 ng/ml, and the cells were cultured for another three days. On day 3, the cultures supernatant was removed from each well, 200 μl of culture medium containing 10% by volume of Alamar blue reagents (commercialized by Trek Diagnostic Systems Inc., Ohio, USA) were added to each well, and the cells were cultured for 6 hours. After culturing for 6 hours, the cells were measured for fluorescent intensity at a wavelength of 544-590 nm by “FlexStation 3”, a product name of a fluorescent plate reader (commercialized by Japan Molecular Devices Corporation, Tokyo, Japan). […] Measurements were performed for each test compound in triplicate, and the mean values were shown.
The method was based on Experiment 1-1, except the concentrations of the test compounds were set to three doses of 40 nM, 200 nM and 1,000 nM for evaluation method A (neurocyte growth accelerating effect), and two doses of 200 nM and 1,000 nM for evaluation method B (neurite outgrowth promoting effect). […]

SMILES	Action on PC12-HS neurite-outgrowth promotion (500 ng/ml) [1]	Action on PC12-HS growth acceleration (50 ng/ml) [2]	other results
CCN1C(C)=CSC1=CC=Cc1scc(C)[n+]1CC.[I-] [NK-67]	◯ (When the mean neurite-outgrowth rate was 25 to 44%, it was judged to be equivalent to the positive control NK-4 (“circle”))	–	–
CCCCCCCN1C(C)=CSC1=Cc1scc(C)[n+]1CCCCCCC.[I-] [NK-266]	◯ (When the mean neurite-outgrowth rate was 25 to 44%, it was judged to be equivalent to the positive control NK-4 (“circle”))	–	–
CCN1C(=Cc2cc[n+](CC)c3ccccc23)C=Cc2ccccc21.[I-] [NK-276]	◯ (When the mean neurite-outgrowth rate was 25 to 44%, it was judged to be equivalent to the positive control NK-4 (“circle”))	–	–
CCN1C(=CC=Cc2sc3ccc4ccccc4c3[n+]2CC)Sc2ccc3ccccc3c21.[I-] [NK-382]	◯ (When the mean neurite-outgrowth rate was 25 to 44%, it was judged to be equivalent to the positive control NK-4 (“circle”))	–	–
CCCCN1C(C)=CSC1=Cc1scc(C)[n+]1CCCC.[I-] [NK-399]	◯ (When the mean neurite-outgrowth rate was 25 to 44%, it was judged to be equivalent to the positive control NK-4 (“circle”))	–	–
CN(C)c1ccc(C=Cc2oc3ccccc3[n+]2C)cc1.[I-] [NK-528]	◯ (When the mean neurite-outgrowth rate was 25 to 44%, it was judged to be equivalent to the positive control NK-4 (“circle”))	◯ (the relative value of 130% to 169% was judged to be equivalent to NK-4 (“circle”))	–
CC[n+]1ccccc1C=Cc1ccc(N(C)C)cc1.[I-] [NK-557]	◯ (When the mean neurite-outgrowth rate was 25 to 44%, it was judged to be equivalent to the positive control NK-4 (“circle”))	–	–
Cc1ccc2c(c1)SC(=Cc1sc3cc(C)ccc3[n+]1C)N2C.[I-] [NK-594]	◯ (When the mean neurite-outgrowth rate was 25 to 44%, it was judged to be equivalent to the positive control NK-4 (“circle”))	–	–
CCN1C(=CC=Cc2cc[n+](CC)c3ccccc23)Oc2ccccc21.[I-] [NK-741]	◯ (When the mean neurite-outgrowth rate was 25 to 44%, it was judged to be equivalent to the positive control NK-4 (“circle”))	–	–
CCN1C(=Cc2oc3ccccc3[n+]2CC)Oc2ccccc21.[I-] [NK-863]	◯ (When the mean neurite-outgrowth rate was 25 to 44%, it was judged to be equivalent to the positive control NK-4 (“circle”))	–	–
CCN1C(=Cc2ccc3ccccc3[n+]2CC)C=Cc2ccccc21.[Br-] [NK-1046]	◯ (When the mean neurite-outgrowth rate was 25 to 44%, it was judged to be equivalent to the positive control NK-4 (“circle”))	–	–
CCN1C(=Cc2oc3ccccc3[n+]2CC)Sc2ccccc21.[I-] [NK-1049]	◯ (When the mean neurite-outgrowth rate was 25 to 44%, it was judged to be equivalent to the positive control NK-4 (“circle”))	–	–
O=C1/C(=C\c2ccccc2)SC(=S)N1c1ccccc1 [NK-1075]	–	◯ (the relative value of 130% to 169% was judged to be equivalent to NK-4 (“circle”))	–
CC1=NN(c2ccccc2)C(=O)/C1=C\c1ccccc1 [NK-1076]	–	◯ (the relative value of 130% to 169% was judged to be equivalent to NK-4 (“circle”))	–
CC1=NN(c2ccccc2)C(=O)/C1=C\c1ccc(N(C)C)cc1 [NK-1107]	–	◯ (the relative value of 130% to 169% was judged to be equivalent to NK-4 (“circle”))	–
CC(=Cc1oc2ccccc2[n+]1C)C=C1Oc2ccccc2N1C.[I-] [NK-1300]	◯ (When the mean neurite-outgrowth rate was 25 to 44%, it was judged to be equivalent to the positive control NK-4 (“circle”))	–	–
CCN1C(=O)/C(=C\C=C\c2sc(=S)n(CC)c2O)SC1=S [NK-1451]	–	◯ (the relative value of 130% to 169% was judged to be equivalent to NK-4 (“circle”))	–
CCN1C(=Cc2sc3ccccc3[n+]2CC)Sc2ccccc21.[Br-] [NK-1560]	◯ (When the mean neurite-outgrowth rate was 25 to 44%, it was judged to be equivalent to the positive control NK-4 (“circle”))	–	–
CN1C(=CC2=[N+](C)c3ccccc3C2(C)C)Sc2ccccc21.[I-] [NK-1570]	◯ (When the mean neurite-outgrowth rate was 25 to 44%, it was judged to be equivalent to the positive control NK-4 (“circle”))	–	–
CN1C(=CC2=[N+](C)c3ccccc3C2(C)C)Oc2ccccc21.[I-] [NK-1684]	◯ (When the mean neurite-outgrowth rate was 25 to 44%, it was judged to be equivalent to the positive control NK-4 (“circle”))	–	–
O=C1/C(=C\C=C\c2sc3ccccc3c2O)Sc2ccccc21 [NK-1741]	–	◯ (the relative value of 130% to 169% was judged to be equivalent to NK-4 (“circle”))	–
CC1(C)C(=CC=CC2=[N+](CCO)c3ccccc3C2(C)C)N(CCO)c2ccccc21.[Br-] [NK-1883]	–	–	Neurite-outgrowth rate (%) ([1]; 1.000 nM): 13.3%; Neurite-outgrowth rate (%) ([1]; 200 nM): 13.3%; Cell proliferation rate (%) ([2]; 1.000 nM): 87.5%; Cell proliferation rate (%) ([2]; 40 nM): 104.8%; Cell proliferation rate (%) ([2]; 200 nM): 105.1%; neurocyte growth acceleration activity (in words) [2]: almost no growth acceleration activity
O=S(=O)([O-])CCCN1CCSC1=CC=CC1=[N+](CCCS(=O)(=O)[O-])CCS1.[Na+] [NK-3134]	–	◯ (the relative value of 130% to 169% was judged to be equivalent to NK-4 (“circle”))	Neurite-outgrowth rate (%) ([1]; 1.000 nM): 18.2%; Neurite-outgrowth rate (%) ([1]; 200 nM): 29.4%; neurite-outgrowth promoting activity (in words) ([1]; 200 and 1,000 nM, comment on Table 2): almost equivalent neurite-outgrowth promoting rate to NK-4; Cell proliferation rate (%) ([2]; 1.000 nM): 122.8%; Cell proliferation rate (%) ([2]; 40 nM): 103.9%; Cell proliferation rate (%) ([2]; 200 nM): 119.6%; neurocyte growth acceleration activity (in words) [2]: slightly weaker activity than NK-6 and NK-36
